Laboratory results reported in PubChem BioAssay (NCI).
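Tested at 5 concentrations; 48 h exposure; 96-well plates; endpoints linearly interpolated, else capped at highest concentration. The concentration for 50% growth inhibition is given as GI50. At the TGI there is no net growth.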

Experiments:
Assay in all cases: NCI-60 cell line screen, 48 h
NCI-H226 lung = system: NCI-H226 lung
A498 renal = system: A498 renal
UACC-257 melanoma = system: UACC-257 melanoma
ACHN renal = system: ACHN renal
SK-MEL-2 melanoma = system: SK-MEL-2 melanoma
SF-295 CNS = system: SF-295 CNS
SN12C renal = system: SN12C renal
SK-MEL-5 melanoma = system: SK-MEL-5 melanoma
MDA-MB-435 = system: MDA-MB-435
MCF7 breast = system: MCF7 breast

| Structure (SMILES) | TGI (NCI-H226 lung) [µM] | GI50 (A498 renal) [µM] | GI50 (UACC-257 melanoma) [µM] | GI50 (ACHN renal) [µM] | TGI (SK-MEL-2 melanoma) [µM] | GI50 (SF-295 CNS) [µM] | GI50 (SN12C renal) [µM] | GI50 (SK-MEL-5 melanoma) [µM] | TGI (A498 renal) [µM] | TGI (UACC-257 melanoma) [µM] | TGI (ACHN renal) [µM] | TGI (SF-295 CNS) [µM] | TGI (SN12C renal) [µM] | TGI (SK-MEL-5 melanoma) [µM] | GI50 (NCI-H226 lung) [µM] | GI50 (MDA-MB-435) [µM] | TGI (MDA-MB-435) [µM] | GI50 (MCF7 breast) [µM] | TGI (MCF7 breast) [µM] | GI50 (SK-MEL-2 melanoma) [µM] |
| --- | --- | --- | --- | --- | --- | --- | --- | --- | --- | --- | --- | --- | --- | --- | --- | --- | --- | --- | --- | --- |
| C[N+]1(CCNP(=S)(NCC[N+]2(C)Cc3c(ccc4c3OCO4)C3C2c2cc4c(cc2C[C@@H]3O)OCO4)NCC[N+]2(C)Cc3c(ccc4c3OCO4)C3C2c2cc4c(cc2C[C@@H]3O)OCO4)Cc2c(ccc3c2OCO3)C2C1c1cc3c(cc1C[C@H]2O)OCO3 (stereo partly specified) | 79.6 | 1.54 | 1.44 | 4.16 | < 0.00191 | 1.43 | 3.84 | 1.89 |  |  |  |  |  |  |  |  |  |  |  |  |
| CCCC(=O)Oc1ccc(/C=N/NC(N)=S)nc1 | > 100 |  |  |  | > 100 |  |  |  | > 100 | > 100 | > 100 | > 100 | > 100 | > 100 |  |  |  |  |  |  |
| CCOC(=O)NC(=O)c1cn(C2CCCCC2)c(=O)n(C)c1=O | > 100 |  |  |  | > 100 |  |  |  | > 100 | > 100 | > 100 | > 100 | > 100 | > 100 |  |  |  |  |  |  |
| CCCCCCCCCCNC(=S)OC |  |  |  |  |  |  |  |  | > 100 | 83.8 | > 100 | > 100 | > 100 | 54.1 |  |  |  |  |  |  |
| CC(=O)O[C@H]1CC[C@@]2(C)C(=CC[C@H]3C(CC#N)[C@@](C)(C#N)CCC32)C1 (stereo partly specified) | > 100 |  |  |  | > 100 |  |  |  | > 100 | > 100 | > 100 | > 100 | > 100 | > 100 |  |  |  |  |  |  |
| COc1ccc2c(c1)C(=O)/C(=C/c1ccc(O)cc1)O2 | 79 | 23.2 | 19.8 | 4 |  | 23.6 | 14.1 | 15.4 | 49.3 | 35.2 | 10.9 | > 66.9 | 32 | 30.5 | 25.7 | 6.73 | 20.5 | 4.93 | 18.3 |  |
| CC(=O)N(N=O)c1ccc(N(N=O)C(C)=O)cc1 | > 100 |  |  |  | > 100 |  |  |  | > 100 |  | > 100 | > 100 | > 100 | > 100 |  |  |  |  |  |  |
| C/C(=N\NC(=O)c1ccccc1O)c1c(O)cc(C)oc1=O | > 100 |  |  |  | > 100 |  |  |  | > 100 | > 100 | > 100 | > 100 | > 100 | > 100 |  |  |  |  |  |  |
| Cc1ccc(NC(=O)C(=O)C2C(=O)NC(=O)NC2=O)c(C)c1 | 37.8 |  |  |  | > 100 |  |  |  | > 100 | > 100 | > 100 | > 100 | 28.2 | > 100 |  |  |  |  |  |  |
| CC(=O)OC1CC2C(C)(C)C(=O)C=C[C@]2(C)C2CCC3(C)C(c4ccoc4)C(=O)C4OC43[C@]12C (stereo partly specified) | 32.7 |  |  |  | 31.9 |  |  |  | 42.5 | 35.1 | 85 | 37.7 | 30.7 | 30 |  |  |  |  |  |  |
| C=C1C2CC(OC(C)=O)C3(C)C(c4ccoc4)OC(=O)[C@@H](O)[C@]13OC1C[C@H](OC(C)=O)C(C)(C)[C@H](C(O)C(=O)OC)[C@]12C (stereo partly specified) | > 100 |  |  |  | > 100 |  |  |  | > 100 |  | > 100 | > 100 | > 100 | > 100 |  |  |  |  |  |  |
| Nc1ccc(C(=O)CC2(O)C(=O)Nc3ccccc32)cc1 (stereo unspecified) | > 100 |  |  |  | > 100 |  |  |  | > 100 | > 100 | > 100 | > 100 | > 100 | > 100 |  |  |  |  |  |  |
| COc1cc(/C=C/C(=O)c2ccccc2O)ccc1OCCCOc1cc2c(cc1OC)C(=O)N1CCC[C@H]1C=N2 | 0.541 | 0.0479 | 0.158 | 0.071 | 0.392 | 0.0281 | 0.0521 | 0.0577 | 0.319 | 0.527 | 0.818 | 0.0895 | 1.3 | 0.167 | 0.181 |  |  | 0.0426 | > 36.9 | 0.0999 |
| COc1cccc(/C=C2\N=C(Cl)OC2=O)c1O | > 100 |  |  |  | > 100 |  |  |  | > 100 | > 100 | > 100 | > 100 | > 100 | > 100 |  |  |  |  |  |  |
| CC1=NC(C)=C(/C(C)=N/NC(=O)c2ccccc2O)C(C)/C1=C(/C)NNC(=O)c1ccccc1O (stereo unspecified) |  |  |  |  |  |  |  |  | 99.6 | 76.6 | 86.4 |  | > 100 | 38.9 |  |  |  |  |  |  |
| O=C(Nc1ccc(Cl)cc1)c1cc(NCc2cc(O)ccc2O)ccc1O |  | 17.1 | 15.7 | 3.37 | 27.3 | 15.4 | 7.47 | 6.12 | 47.1 | 30.3 | 15.1 | 36.3 | 22.6 | 20 |  | 12 | 27.2 | 3.87 | 25.5 | 12.2 |
| C=CCC1(CN(C)C)CC/C(=C\c2cc(OC)c(OC)c(OC)c2)C1=O (stereo unspecified) | > 100 |  |  |  | > 100 |  |  |  | 79 | 58.3 | 70.8 | 92.8 | 54.8 | 35.3 |  |  |  |  |  |  |
| O=c1cccccc1O | > 100 |  |  |  | > 100 |  |  |  |  | > 100 | > 100 | > 100 |  | > 100 |  |  | > 100 |  | > 100 |  |
| CON1C(=O)C2(CCCCC2)C(=O)C12C=CC(C)CC2 (stereo unspecified) | > 100 |  |  |  | > 100 |  |  |  | > 100 | > 100 |  | > 100 | > 100 | > 100 |  |  |  |  |  |  |
| CSc1nc2c(nc(N)n2C2OC(CO)C(O)C(O)C2O)c(=O)[nH]1 (stereo unspecified) | > 100 |  |  |  |  |  |  |  | > 100 | > 100 | > 100 | > 100 | > 100 | > 100 |  |  |  |  |  |  |
| CCCCSC1CCSc2c1ccc1ccccc21 (stereo unspecified) |  |  |  |  | > 100 |  |  |  |  |  |  | > 100 |  | > 100 |  |  |  |  |  |  |
| NCCCNCc1c2ccccc2c(CNCCCN)c2ccccc12 |  |  |  |  | 28.2 |  |  |  | 76.8 | 45.1 | > 100 | 56.2 | 18.5 | 66.6 |  |  |  |  |  |  |
| Cc1cc2[nH]c(=O)c3c4ncccc4cn3c2cc1C | > 100 | 9.38 |  | 2.44 | 40.3 | 1.85 | 3.45 |  | 84.5 |  | > 100 | 3.84 | > 100 |  | 6.04 |  |  |  |  | 5.69 |
| O=C(O)C(Cc1ccccc1)N=Cc1nc(-c2ccccc2)oc1O (stereo unspecified) | > 100 |  |  |  | > 100 |  |  |  | > 100 | > 100 | > 100 | > 100 | > 100 | > 100 |  |  |  |  |  |  |
